Laboratory results: patent US11008314B2, “Compounds and methods for modulating interleukin-2-inducible t-cell kinase” (CORVUS PHARMACEUTICALS, INC., priority 2016, dated 2021)

Legend:
Type in all cases: biochemical
[1] = molecular target: JAK3 (Homo sapiens (Human), UniProt P52333); assay: IC50 against JAK3
[2] = molecular target: TXK (Homo sapiens (Human), UniProt P42681); assay: IC50 against TXK; settings: for TXK/ITK: ratio of TXK IC50 to ITK IC50
[3] = molecular target: ITK (Homo sapiens (Human), UniProt Q08881); assay: IC50 against ITK
[4] = molecular target: BTK (Homo sapiens (Human), UniProt Q06187); assay: IC50 against BTK
BTK, sequence (Q06187 whole entry, species assumed): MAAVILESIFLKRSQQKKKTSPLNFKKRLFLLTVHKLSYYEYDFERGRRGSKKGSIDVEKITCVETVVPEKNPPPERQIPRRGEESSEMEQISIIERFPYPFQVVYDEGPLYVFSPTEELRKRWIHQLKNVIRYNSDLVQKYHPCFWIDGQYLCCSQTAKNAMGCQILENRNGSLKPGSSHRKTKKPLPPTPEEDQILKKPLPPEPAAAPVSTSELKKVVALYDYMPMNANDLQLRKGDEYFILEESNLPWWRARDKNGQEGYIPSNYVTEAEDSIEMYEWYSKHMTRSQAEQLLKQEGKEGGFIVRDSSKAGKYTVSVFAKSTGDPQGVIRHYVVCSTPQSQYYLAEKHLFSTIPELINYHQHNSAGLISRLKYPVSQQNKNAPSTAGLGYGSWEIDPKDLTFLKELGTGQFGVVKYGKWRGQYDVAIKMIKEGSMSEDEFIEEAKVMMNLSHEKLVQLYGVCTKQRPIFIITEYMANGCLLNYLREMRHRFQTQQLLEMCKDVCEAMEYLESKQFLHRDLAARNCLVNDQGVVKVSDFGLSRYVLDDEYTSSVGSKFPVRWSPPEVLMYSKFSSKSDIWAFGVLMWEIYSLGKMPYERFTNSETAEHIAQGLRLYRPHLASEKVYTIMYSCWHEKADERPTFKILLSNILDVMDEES

JAK3, sequence (P52333 whole entry, species assumed): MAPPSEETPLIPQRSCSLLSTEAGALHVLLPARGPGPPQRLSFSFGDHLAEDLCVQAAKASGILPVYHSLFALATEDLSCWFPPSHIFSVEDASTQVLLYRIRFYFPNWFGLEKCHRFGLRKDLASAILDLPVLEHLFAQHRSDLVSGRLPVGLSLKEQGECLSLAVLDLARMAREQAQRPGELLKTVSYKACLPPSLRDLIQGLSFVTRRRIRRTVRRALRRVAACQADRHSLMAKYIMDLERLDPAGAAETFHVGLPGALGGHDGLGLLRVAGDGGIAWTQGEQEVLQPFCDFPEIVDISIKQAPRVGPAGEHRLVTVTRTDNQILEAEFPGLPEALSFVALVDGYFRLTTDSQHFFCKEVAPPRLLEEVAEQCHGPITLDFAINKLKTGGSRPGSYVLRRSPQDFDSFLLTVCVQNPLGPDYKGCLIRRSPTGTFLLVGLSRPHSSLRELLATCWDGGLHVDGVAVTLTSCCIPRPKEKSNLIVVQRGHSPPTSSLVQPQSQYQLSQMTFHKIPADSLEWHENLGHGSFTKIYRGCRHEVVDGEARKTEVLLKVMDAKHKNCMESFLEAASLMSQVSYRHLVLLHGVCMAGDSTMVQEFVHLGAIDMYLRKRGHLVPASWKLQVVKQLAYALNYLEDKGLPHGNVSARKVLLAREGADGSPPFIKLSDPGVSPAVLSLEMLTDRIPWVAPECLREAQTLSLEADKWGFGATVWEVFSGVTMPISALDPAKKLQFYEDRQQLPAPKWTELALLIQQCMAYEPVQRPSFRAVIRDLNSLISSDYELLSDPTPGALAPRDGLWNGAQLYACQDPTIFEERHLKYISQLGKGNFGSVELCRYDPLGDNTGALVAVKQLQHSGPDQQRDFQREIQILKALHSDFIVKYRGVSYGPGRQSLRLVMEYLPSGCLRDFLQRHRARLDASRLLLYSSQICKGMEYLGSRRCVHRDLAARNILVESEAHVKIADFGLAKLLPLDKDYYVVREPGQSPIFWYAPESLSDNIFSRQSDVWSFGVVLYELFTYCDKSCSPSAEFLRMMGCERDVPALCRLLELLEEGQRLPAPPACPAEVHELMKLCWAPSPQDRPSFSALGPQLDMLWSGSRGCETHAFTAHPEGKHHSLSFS
TXK, sequence (P42681 whole entry, species assumed): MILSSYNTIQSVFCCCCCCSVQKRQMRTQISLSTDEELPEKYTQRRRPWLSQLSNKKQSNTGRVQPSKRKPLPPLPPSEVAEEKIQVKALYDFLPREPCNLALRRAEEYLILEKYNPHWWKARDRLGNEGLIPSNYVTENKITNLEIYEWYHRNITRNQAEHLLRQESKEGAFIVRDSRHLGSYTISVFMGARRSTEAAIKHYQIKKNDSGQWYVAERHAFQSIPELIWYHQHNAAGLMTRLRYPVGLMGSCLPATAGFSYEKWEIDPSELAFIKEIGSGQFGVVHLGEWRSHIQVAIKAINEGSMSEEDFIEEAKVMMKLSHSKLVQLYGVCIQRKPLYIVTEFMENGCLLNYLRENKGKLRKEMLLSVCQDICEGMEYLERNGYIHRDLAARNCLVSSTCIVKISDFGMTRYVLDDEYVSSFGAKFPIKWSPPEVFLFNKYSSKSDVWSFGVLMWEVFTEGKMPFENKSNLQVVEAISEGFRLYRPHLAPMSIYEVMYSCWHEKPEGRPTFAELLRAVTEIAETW
ITK, sequence (Q08881 whole entry): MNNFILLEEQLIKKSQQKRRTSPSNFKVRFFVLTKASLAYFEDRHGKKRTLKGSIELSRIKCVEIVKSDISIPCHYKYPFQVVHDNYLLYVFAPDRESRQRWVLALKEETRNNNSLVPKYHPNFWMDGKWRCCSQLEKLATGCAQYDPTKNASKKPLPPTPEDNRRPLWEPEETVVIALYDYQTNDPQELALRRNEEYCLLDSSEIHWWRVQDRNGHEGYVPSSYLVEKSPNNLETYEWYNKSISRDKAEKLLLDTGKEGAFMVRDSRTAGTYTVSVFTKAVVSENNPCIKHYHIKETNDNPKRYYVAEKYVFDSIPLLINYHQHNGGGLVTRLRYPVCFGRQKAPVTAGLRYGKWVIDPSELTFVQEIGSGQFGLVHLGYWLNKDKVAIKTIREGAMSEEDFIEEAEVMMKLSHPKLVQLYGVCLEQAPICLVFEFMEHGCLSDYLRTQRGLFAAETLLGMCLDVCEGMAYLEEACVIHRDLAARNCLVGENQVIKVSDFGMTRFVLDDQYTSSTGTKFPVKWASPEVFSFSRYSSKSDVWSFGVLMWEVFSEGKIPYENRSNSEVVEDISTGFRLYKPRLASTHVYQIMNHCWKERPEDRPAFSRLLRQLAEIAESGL

## C=CC(=O)N1CCCN(C(=O)c2cc(C)c(C)c(Sc3cnc(NC(=O)C4CC4)s3)c2)C[C@H]1C [Compound 64]
[1]
  IC50: ≥ 10000 nM
[2]
  IC50: 1000 to 10000 nM
  TXK/ITK: 11.944
[3]
  IC50: 100 to 1000 nM
[4]
  IC50: ≥ 10000 nM

## C=CC(=O)N1CCN(C(=O)c2cc(Cc3cnc(NC(=O)C4CC4)s3)c(C)cc2OC)CC1 [Compound 65]
[1]
  IC50: 100 to 1000 nM
[2]
  IC50: < 10 nM
  TXK/ITK: 0.392
[3]
  IC50: < 10 nM
[4]
  IC50: 10 to 100 nM

## C=CC(=O)N1CCN(C(=O)c2cc(Sc3cnc(NC(=O)c4cccc(CN(C)C)c4)s3)c(C)cc2OC)CC(F)C1 (stereo not shown) [Compound 66]
[1]
  IC50: 100 to 1000 nM
[2]
  IC50: 100 to 1000 nM
  TXK/ITK: 70.047
[3]
  IC50: < 10 nM
[4]
  IC50: 100 to 1000 nM

## C=CC(=O)N1CCN(C(=O)c2cc(Sc3cnc(NC4CC4)s3)c(C)cc2OC)CC1 [Compound 67]
[1]
  IC50: 1000 to 10000 nM
[2]
  IC50: 1000 to 10000 nM
  TXK/ITK: 0.634
[3]
  IC50: ≥ 10000 nM
[4]
  IC50: ≥ 10000 nM

## C=CC(=O)N1CCN(C(=O)c2cc(Sc3cnc(NC(=O)C4CC4)s3)c(C)cc2C(F)(F)F)CC1 [Compound 68]
[1]
  IC50: 1000 to 10000 nM
[2]
  IC50: 100 to 1000 nM
  TXK/ITK: 3.6548
[3]
  IC50: 10 to 100 nM
[4]
  IC50: ≥ 10000 nM

## C=CC(=O)N1CCN(C(=O)c2cc(Sc3cnc(NC(=O)C4CC4)s3)c(C)cc2C(F)(F)F)C[C@H]1C [Compound 69]
[1]
  IC50: 1000 to 10000 nM
[2]
  IC50: 100 to 1000 nM
  TXK/ITK: 4.9369
[3]
  IC50: 100 to 1000 nM
[4]
  IC50: ≥ 10000 nM

## C=CC(=O)N1CCCN(C(=O)c2cc(Sc3cnc(NC(=O)C4CC4)s3)c(C)cc2C(F)(F)F)C[C@H]1C [Compound 70]
[1]
  IC50: ≥ 10000 nM
[2]
  IC50: 1000 to 10000 nM
  TXK/ITK: 35.68
[3]
  IC50: 10 to 100 nM
[4]
  IC50: ≥ 10000 nM

## C=CC(=O)N1CCCN(C(=O)c2cc(Sc3cnc(NC(=O)C4CC4)s3)c(C)cc2OC)[C@@H](C)C1 [Compound 72]
[1]
  IC50: ≥ 10000 nM
[2]
  IC50: 1000 to 10000 nM
  TXK/ITK: 1.1846
[3]
  IC50: 100 to 1000 nM
[4]
  IC50: ≥ 10000 nM

## C=CC(=O)N1CCN(C(=O)c2cc(Sc3cnc(NC(=O)C4CC4)s3)c(C)cc2C)CC1 [Compound 73]
[1]
  IC50: 100 to 1000 nM
[2]
  IC50: 10 to 100 nM
  TXK/ITK: 3.2627
[3]
  IC50: < 10 nM
[4]
  IC50: 100 to 1000 nM

## C=CC(=O)N1CCCN(C(=O)c2cc(Sc3cnc(NC(=O)C4CC4)s3)c(C)cc2C)CC1 [Compound 74]
[1]
  IC50: 100 to 1000 nM
[2]
  IC50: 100 to 1000 nM
  TXK/ITK: 16.033
[3]
  IC50: < 10 nM
[4]
  IC50: 100 to 1000 nM

## C=CC(=O)N1CCN(C(=O)c2cc(Sc3cnc(NC(=O)C4CC4)s3)c(C)cn2)CC1 [Compound 76]
[1]
  IC50: ≥ 10000 nM
[2]
  IC50: ≥ 10000 nM
  TXK/ITK: 1
[3]
  IC50: ≥ 10000 nM
[4]
  IC50: ≥ 10000 nM

## C=CC(=O)N1CCCN(C(=O)c2cc(Sc3cnc(NC(=O)C4CC4)s3)ccc2OC)C[C@H]1C [Compound 77]
[1]
  IC50: 1000 to 10000 nM
[2]
  IC50: 1000 to 10000 nM
  TXK/ITK: 95.398
[3]
  IC50: 10 to 100 nM
[4]
  IC50: ≥ 10000 nM

## C=CC(=O)N1CCN(C(=O)c2cc(Sc3cnc(NC(=O)C4CC4)s3)ccc2OC)CC1 [Compound 78]
[1]
  IC50: 100 to 1000 nM
[2]
  IC50: 10 to 100 nM
  TXK/ITK: 10.586
[3]
  IC50: < 10 nM
[4]
  IC50: 100 to 1000 nM

## C=CC(=O)N1CCN(C(=O)c2cc(Sc3cnc(NC(=O)C4CC4)s3)ccc2OC)C[C@H]1C [Compound 79]
[1]
  IC50: 100 to 1000 nM
[2]
  IC50: 100 to 1000 nM
  TXK/ITK: 21.331
[3]
  IC50: 10 to 100 nM
[4]
  IC50: ≥ 10000 nM

## C=CC(=O)N1CCN(C(=O)c2cc(Sc3cnc(NC(=O)C4CC4)s3)c(Cl)cc2C)CC1 [Compound 80]
[1]
  IC50: 10 to 100 nM
[2]
  IC50: 10 to 100 nM
  TXK/ITK: 8.1619
[3]
  IC50: < 10 nM
[4]
  IC50: 100 to 1000 nM

## C=CC(=O)N1CCN(C(=O)c2cc(Sc3cnc(NC(=O)C4CC4)s3)c(Cl)cc2C)C[C@H]1C [Compound 81]
[1]
  IC50: 100 to 1000 nM
[2]
  IC50: 100 to 1000 nM
  TXK/ITK: 19.042
[3]
  IC50: < 10 nM
[4]
  IC50: 1000 to 10000 nM

## C=CC(=O)N1CCN(C(=O)c2cc(Sc3cnc(NC(=O)C4CC4)s3)c(F)cc2C)C[C@H]1C [Compound 82]
[1]
  IC50: 100 to 1000 nM
[2]
  IC50: 100 to 1000 nM
  TXK/ITK: 9.2468
[3]
  IC50: 10 to 100 nM
[4]
  IC50: ≥ 10000 nM

## C=CC(=O)N1CCCN(C(=O)c2cc(Sc3cnc(NC(=O)C4CC4)s3)c(F)cc2C)C[C@H]1C [Compound 83]
[1]
  IC50: 1000 to 10000 nM
[2]
  IC50: 1000 to 10000 nM
  TXK/ITK: 45.317
[3]
  IC50: 10 to 100 nM
[4]
  IC50: ≥ 10000 nM

## C=CC(=O)N1CCN(C(=O)c2cc(Sc3cnc(NC(=O)C4CCC4)s3)c(C)cc2OC)CC1 [Compound 84]
[1]
  IC50: 1000 to 10000 nM
[2]
  IC50: 10 to 100 nM
  TXK/ITK: 21.948
[3]
  IC50: < 10 nM
[4]
  IC50: 1000 to 10000 nM

## C=CC(=O)N1CCN(C(=O)c2cc(Sc3cnc(NC(=O)c4cnsc4)s3)c(C)cc2OC)CC1 [Compound 85]
[1]
  IC50: 100 to 1000 nM
[2]
  IC50: 10 to 100 nM
  TXK/ITK: 33.582
[3]
  IC50: < 10 nM
[4]
  IC50: 100 to 1000 nM
